{"source": "ChEMBL document CHEMBL5614390", "about": "“Novel EGFR inhibitors against resistant L858R/T790M/C797S mutant for intervention of non-small cell lung cancer” (Eur J Med Chem, 2024)", "key": {"PC-9 [1]": {"system": "PC-9", "test": "Antitumor activity against human PC-9 cells expressing EGFR L858R/T790M/C797S mutant xenografted in BALB/c nude mouse assessed as tumor growth inhibition at 10 mg/kg, po administered for 18 days relative to control", "assay_type": "functional", "conditions": "PC-9, 432 h, time 18 day, read-out: TGI"}, "NCI-H1975": {"system": "NCI-H1975", "test": "cells", "conditions": "Homo sapiens, NCI-H1975, 72 h", "description": "Cytotoxicity against human NCI-H1975 cells expressing EGFR L858R/T790M mutant assessed as inhibition of cell proliferation incubated for 72 hrs by CCK8 assay"}, "PC-9 [2]": {"system": "PC-9", "test": "Induction of apoptosis in human PC-9 cells expressing EGFR L858R/T790M/C797S mutant assessed as late apoptotic cells at 0.1 uM incubated for 48 hrs by Annexin V-FITC/PI staining based flow cytometric analysis (reference value: 0.360 %)", "assay_type": "functional"}, "PC-9 [3]": {"system": "PC-9", "test": "Antitumor activity against human PC-9 cells expressing EGFR L858R/T790M/C797S mutant xenografted in BALB/c nude mouse assessed as tumor growth inhibition at 20 mg/kg, po administered for 18 days relative to control", "assay_type": "functional", "conditions": "PC-9, 432 h, time 18 day, read-out: TGI"}, "PC-9 [4]": {"system": "PC-9", "test": "Induction of apoptosis in human PC-9 cells expressing EGFR L858R/T790M/C797S mutant assessed as late apoptotic cells at 1 uM incubated for 48 hrs by Annexin V-FITC/PI staining based flow cytometric analysis (reference value: 0.360 %)", "assay_type": "functional"}, "PC-9 [5]": {"system": "PC-9", "test": "Induction of cell cycle arrest in human PC-9 cells expressing EGFR L858R/T790M/C797S mutant assessed as accumulation of cells at G2/M phase at 1 uM incubated for 24 hrs by PI staining based flow cytometric analysis", "assay_type": "functional"}, "PC-9 [6]": {"system": "PC-9", "test": "Induction of apoptosis in human PC-9 cells expressing EGFR Del19/T790M/C797S mutant assessed as early apoptotic cells at 0.5 uM incubated for 48 hrs by Annexin V-FITC/PI staining based flow cytometric analysis (reference value: 0.050 %)", "assay_type": "functional"}, "PC-9 [7]": {"system": "PC-9", "test": "Induction of apoptosis in human PC-9 cells expressing EGFR Del19/T790M/C797S mutant assessed as early apoptotic cells at 0.1 uM incubated for 48 hrs by Annexin V-FITC/PI staining based flow cytometric analysis (reference value: 0.050 %)", "assay_type": "functional"}, "PC-9 [8]": {"system": "PC-9", "test": "Induction of apoptosis in human PC-9 cells expressing EGFR L858R/T790M/C797S mutant assessed as viable cells at 0.5 uM incubated for 48 hrs by Annexin V-FITC/PI staining based flow cytometric analysis (reference value: 98.9 %)", "assay_type": "functional", "conditions": "read-out: Activity"}, "PC-9 [9]": {"system": "PC-9", "test": "cells", "conditions": "Homo sapiens, PC-9, 72 h", "description": "Cytotoxicity against human PC-9 cells expressing EGFR Del19/T790M/C797S mutant assessed as inhibition of cell proliferation incubated for 72 hrs by CCK8 assay"}, "PC-9 [10]": {"system": "PC-9", "test": "Induction of cell cycle arrest in human PC-9 cells expressing EGFR Del19/T790M/C797S mutant assessed as accumulation of cells at G2/M phase at 1 uM incubated for 24 hrs by PI staining based flow cytometric analysis", "assay_type": "functional"}, "PC-9 [11]": {"system": "PC-9", "test": "Induction of apoptosis in human PC-9 cells expressing EGFR L858R/T790M/C797S mutant assessed as early apoptotic cells at 0.5 uM incubated for 48 hrs by Annexin V-FITC/PI staining based flow cytometric analysis (reference value: 0.210 %)", "assay_type": "functional"}, "PC-9 [12]": {"system": "PC-9", "test": "Induction of cell cycle arrest in human PC-9 cells expressing EGFR L858R/T790M/C797S mutant assessed as S phase cells at 0.1 to 1 uM incubated for 24 hrs by PI staining based flow cytometric analysis (reference value: 34.5 +/- 3.3 %)", "assay_type": "functional", "conditions": "dose 0.1-1 µM"}, "PC-9 [13]": {"system": "PC-9", "test": "Antitumor activity against human PC-9 cells expressing EGFR L858R/T790M/C797S mutant xenografted in BALB/c nude mouse assessed as tumor growth inhibition at 40 mg/kg, po administered for 18 days relative to control", "assay_type": "functional", "conditions": "Mus musculus, PC-9, 432 h, time 18 day, read-out: TGI"}, "[14]": {"test": "Toxicity in BALB/c nude mouse xenografted with human PC-9 cells expressing EGFR L858R/T790M/C797S mutant assessed as body weight loss at 10 to 40 mg/kg, po administered for 18 days", "assay_type": "organism-based", "conditions": "in vivo, 432 h, dose 10-40 mg/kg, time 18 day"}, "PC-9 [15]": {"system": "PC-9", "test": "Induction of apoptosis in human PC-9 cells expressing EGFR L858R/T790M/C797S mutant assessed as necrotic cells at 1 uM incubated for 48 hrs by Annexin V-FITC/PI staining based flow cytometric analysis (reference value: 0.540 %)", "assay_type": "functional"}, "[16]": {"test": "Metabolic stability in human liver microsomes assessed as half-life at 10 uM preincubated for 5 mins followed by NADPH addition and measured upto 60 mins by HPLC analysis", "assay_type": "ADME, Microsome", "conditions": "time < 65 min"}, "HCC827": {"system": "HCC827", "test": "cells", "conditions": "Homo sapiens, HCC827, 72 h", "description": "Cytotoxicity against human HCC827 cells expressing EGFR Del19 mutant assessed as inhibition of cell proliferation incubated for 72 hrs by CCK8 assay"}, "PC-9 [17]": {"system": "PC-9", "test": "Induction of apoptosis in human PC-9 cells expressing EGFR Del19/T790M/C797S mutant assessed as necrotic cells at 0.5 uM incubated for 48 hrs by Annexin V-FITC/PI staining based flow cytometric analysis (reference value: 0.090 %)", "assay_type": "functional"}, "[18]": {"test": "Metabolic stability in mouse liver microsomes assessed as intrinsic clearance at 10 uM preincubated for 5 mins followed by NADPH addition and measured upto 60 mins by HPLC analysis", "assay_type": "ADME, Microsome", "conditions": "time < 65 min, read-out: CLH"}, "[19]": {"test": "Metabolic stability in dog liver microsomes assessed as intrinsic clearance at 10 uM preincubated for 5 mins followed by NADPH addition and measured upto 60 mins by HPLC analysis", "assay_type": "ADME, Canis lupus familiaris, Microsome", "conditions": "time < 65 min, read-out: CLH"}, "[20]": {"test": "Metabolic stability in dog liver microsomes assessed as half-life at 10 uM preincubated for 5 mins followed by NADPH addition and measured upto 60 mins by HPLC analysis", "assay_type": "ADME, Canis lupus familiaris, Microsome", "conditions": "time < 65 min"}, "PC-9 [21]": {"system": "PC-9", "test": "Induction of apoptosis in human PC-9 cells expressing EGFR Del19/T790M/C797S mutant assessed as necrotic cells at 1 uM incubated for 48 hrs by Annexin V-FITC/PI staining based flow cytometric analysis (reference value: 0.090 %)", "assay_type": "functional"}, "PC-9 [22]": {"system": "PC-9", "test": "Induction of apoptosis in human PC-9 cells expressing EGFR Del19/T790M/C797S mutant assessed as late apoptotic cells at 0.1 uM incubated for 48 hrs by Annexin V-FITC/PI staining based flow cytometric analysis (reference value: 0.040 %)", "assay_type": "functional"}, "PC-9 [23]": {"system": "PC-9", "test": "Induction of apoptosis in human PC-9 cells expressing EGFR Del19/T790M/C797S mutant assessed as late apoptotic cells at 0.5 uM incubated for 48 hrs by Annexin V-FITC/PI staining based flow cytometric analysis (reference value: 0.040 %)", "assay_type": "functional"}, "PC-9 [24]": {"system": "PC-9", "test": "Induction of apoptosis in human PC-9 cells expressing EGFR Del19/T790M/C797S mutant assessed as late apoptotic cells at 1 uM incubated for 48 hrs by Annexin V-FITC/PI staining based flow cytometric analysis (reference value: 0.040 %)", "assay_type": "functional"}, "PC-9 [25]": {"system": "PC-9", "test": "Induction of cell cycle arrest in human PC-9 cells expressing EGFR L858R/T790M/C797S mutant assessed as accumulation of cells at G0/G1 phase at low dose incubated for 24 hrs by PI staining based flow cytometric analysis", "assay_type": "functional"}, "PC-9 [26]": {"system": "PC-9", "test": "Induction of apoptosis in human PC-9 cells expressing EGFR Del19/T790M/C797S mutant assessed as viable cells at 1 uM incubated for 48 hrs by Annexin V-FITC/PI staining based flow cytometric analysis (reference value: 99.8 %)", "assay_type": "functional", "conditions": "Homo sapiens, PC-9, read-out: Activity"}}, "note": "Active and inactive are the calls of the source. The calls are words filed in the database; no cut-off is given here.", "data": [{"smiles": "C=CC(=O)Nc1cc(Nc2ncc(F)c(-c3ccc4cc(C(=O)NC)n(C(C)C)c4c3)n2)ccc1N1CCN(C)CC1", "values": [{"measurement": "inhibition in vivo at 10 mg/kg", "setting": "PC-9 [1]", "result": 48.7, "unit": "%"}, {"measurement": "IC50", "setting": "NCI-H1975", "result": 106, "unit": "nM"}, {"measurement": "Activity", "setting": "PC-9 [2]", "result": 7.25, "unit": "%"}, {"measurement": "inhibition in vivo at 20 mg/kg", "setting": "PC-9 [3]", "result": 58.4, "unit": "%"}, {"measurement": "Activity", "setting": "PC-9 [4]", "result": 4.02, "unit": "%"}, {"measurement": "Activity", "setting": "PC-9 [5]", "result": "Active"}, {"measurement": "Activity", "setting": "PC-9 [6]", "result": 11.8, "unit": "%"}, {"measurement": "Activity", "setting": "PC-9 [7]", "result": 3.32, "unit": "%"}, {"measurement": "viability at 0.5 µM", "setting": "PC-9 [8]", "result": 61.2, "unit": "%"}, {"measurement": "IC50", "setting": "PC-9 [9]", "result": 201, "unit": "nM"}, {"measurement": "Activity", "setting": "PC-9 [10]", "result": "Active"}, {"measurement": "Activity", "setting": "PC-9 [11]", "result": 30.3, "unit": "%"}, {"measurement": "Activity", "setting": "PC-9 [12]", "result": 15.9, "unit": "%"}, {"measurement": "inhibition in vivo at 40 mg/kg", "setting": "PC-9 [13]", "result": 70.6, "unit": "%"}, {"measurement": "Activity", "setting": "[14]", "result": "Non-Toxic"}, {"measurement": "Activity", "setting": "PC-9 [15]", "result": 0.91, "unit": "%"}, {"measurement": "half-life at 10 µM", "setting": "[16]", "result": 3.85, "unit": "h"}, {"measurement": "IC50", "setting": "HCC827", "result": 108, "unit": "nM"}, {"measurement": "Activity", "setting": "PC-9 [17]", "result": 1.2, "unit": "%"}, {"measurement": "microsomal CLint at 10 µM", "setting": "[18]", "result": 56, "unit": "µL/min/mg"}, {"measurement": "microsomal CLint at 10 µM", "setting": "[19]", "result": 18, "unit": "µL/min/mg"}, {"measurement": "half-life at 10 µM", "setting": "[20]", "result": 4.28, "unit": "h"}, {"measurement": "Activity", "setting": "PC-9 [21]", "result": 1.01, "unit": "%"}, {"measurement": "Activity", "setting": "PC-9 [22]", "result": 7.34, "unit": "%"}, {"measurement": "Activity", "setting": "PC-9 [23]", "result": 4.19, "unit": "%"}, {"measurement": "Activity", "setting": "PC-9 [24]", "result": 8.3, "unit": "%"}, {"measurement": "Activity", "setting": "PC-9 [25]", "result": "Active"}, {"measurement": "viability at 1 µM", "setting": "PC-9 [26]", "result": 79.1, "unit": "%"}]}]}
